Test results: EP0424670B1, “ZNS-active hexapeptides with antiamnestic activity” (HOECHST AKTIENGESELLSCHAFT, priority 1989, dated 1995)
Where a SMILES comes first, the peptide text is derived from it.

What was measured:
[1] = stability in water at 80°C for 8 days, checked by HPLC; type: physicochemical; details: 200 mg in 20 ml water, 8 days at 80°C, freeze-dried, HPLC detection at 220 nm
Protocol: • a) 200 mg Ac-Met(O₂)-Glu-His-Phe-D-Lys-Phe-NH(CH₂)₈-NH₂ · 2 CH₃COOH wurden in 20 ml Wasser gelöst und 8 Tage auf 80°C erhitzt. Nach dem Abkühlen wurde gefriergetrocknet.

[2] = system: Scopolamin-induzierte Amnesie; experiment: radial-maze test (8-arm radial maze), reversal of scopolamine-induced amnesia; type: in vivo, Ratten; details: Rattus norvegicus, po, rats, comparison compound, read-out: MED (minimal effektive Dosis)
Source text: (§1) Die erfindungsgemäße Verbindung ist aufgrund ihrer pharmakologischen Eigenschaften für die Behandlung cognitiver Dysfunktionen unterschiedlicher Genese, wie sie z.B. bei der Alzheimer'schen Krankheit oder der senilen Demenz auftreten, geeignet. Die Verbesserung cognitiver Funktionen durch die erfindungsgemäßen Verbindungen (nootrope Wirkung) wurde im Tierexperiment an Mäusen mittels des inhibitory (passive) avoidance-Tests (step-through-Modell) und an Ratten mittels des radial-maze-Tests (8-armiger radialer Irrgarten) geprüft. Es handelt sich hierbei um literaturbeschriebene Standardtests zur Prüfung von Lern-und Gedächtnisfunktionen im Tierexperiment. (Inhibitory avoidance J. Bures, O. Buresova und J. Huston in "Techniques and Basic Experiments for the Study of Brain and Behavior", Elsevier Scientific Publishers, Amsterdam 1983; Radial Maze: U. Stäubli, M. Baudry und G. Lynch, Behavioral and Neural Biology 40, 58-69 (1984).)
(§2) Entsprechend den genannten Literaturangaben wird eine Substanz dann als nootrop wirksam bezeichnet, wenn sie bei den Versuchstieren der durch Scopolamin, Elektroschock oder Inhibitoren der Proteinsynthese induzierte Erhöhung der Fehlerrate in diesen Tests entgegenwirkt oder sie gar aufzuheben vermag.
(§3) Die Versuche wurden nach den obenbeschriebenen Testverfahren durchgeführt. […]

[3] = system: Scopolamin-induzierte Amnesie; experiment: inhibitory (passive) avoidance test (step-through model), reversal of scopolamine-induced amnesia; type: in vivo, Mäusen; details: Mus musculus, po, mice, comparison compound, read-out: MED (minimal effektive Dosis)
Source text: as §1, §2, §3

| Zersetzung (HPLC-Untersuchung) [1] | SMILES | minimal effective dose [2] [mg/kg] | minimal effective dose [3] [mg/kg] |
| --- | --- | --- | --- |
| keine Zersetzung | CC(=O)N[C@@H](CCS(C)(=O)=O)C(=O)N[C@@H](CCC(=O)O)C(=O)N[C@@H](Cc1c[nH]cn1)C(=O)N[C@@H](Cc1ccccc1)C(=O)N[C@H](CCCCN)C(=O)N[C@@H](Cc1ccccc1)C(=O)NCCCCCCCCN [Ac-Met(O₂)-Glu-His-Phe-D-Lys-Phe-NH-(CH₂)₈-NH₂ · 2 CH₃COOH] (HELM PEPTIDE1{[ac].[CS(=O)(=O)CC[C@H](N[*:1])C(=O)[*:2]].E.H.F.[dK].F.[NCCCCCCCCN[*:1]]}$$$$V2.0) |  |  |
| starke Zersetzung | CS(=O)(=O)CC[C@H](N)C(=O)N[C@@H](CCC(=O)O)C(=O)N[C@@H](Cc1c[nH]cn1)C(=O)N[C@@H](Cc1ccccc1)C(=O)N[C@H](CCCCN)C(=O)N[C@@H](Cc1ccccc1)C(=O)NCCCCCCCCN [H-Met(O₂)-Glu-His-Phe-D-Lys-Phe-NH-(CH₂)₈-NH₂] (HELM PEPTIDE1{[CS(=O)(=O)CC[C@H](N)C(=O)[*:2]].E.H.F.[dK].F.[NCCCCCCCCN[*:1]]}$$$$V2.0) |  |  |
|  | NC(=O)CN1CCCC1=O [Piracetam, 2-Oxo-1-pyrrolidinylessigsäureamid] | 500 to 1000 | 500 to 1000 |
